Reference: patent US20130338216A1, “DEUTERATED AND/OR FLUORINATED TAXANE DERIVATIVES” (NEKTAR THERAPEUTICS, priority 2010, published 2013)

What was measured:
[1] = test system: boiled liver microsomes; assay: Stability in boiled liver microsomes (control incubation); type: in vitro ADME
Experimental: (§1) Methods: Previously frozen human liver microsomes (mixed gender pool; Xenotech H0630) were thawed in a 37° C. water bath and put on ice immediately after thawing. […] The incubation mixture (500 μL) was prepared in individual silanized tube (CTS-13100) for each time point and for each test article. Incubation was terminated by adding 500 μL cold water:acetonitrile 1:1 (v/v) spiked with 400 nM paclitaxel (internal standard) to the tube. […] The slope of the linear regression from log percentage remaining versus incubation time relationships (−k) was used in the calculation of intrinsic clearance: Intrinsic clearance (CLint)=k*(μL incubation/mg of microsomal protein).

[2] = In vitro metabolic stability in human liver microsomes; type: in vitro ADME; settings: both sexes, pH 7.4; human liver microsomes 0.5 mg/mL, 1 μM test article, up to 30 minutes, 37° C.; read-out: intrinsic clearance rate
Experimental: as §1

[3] = test system: cytochrome P450 CYP3A4 and CYP3A5; settings: by cytochrome P450 CYP3A4 and CYP3A5 isoenzymes; cited from earlier work
[4] = test system: NCI-H460 cell line; assay: In vitro cytotoxicity, CellTiter-Glo cell viability, NCI-H460; type: cell-based; settings: Homo sapiens, 72 hours of exposure
Experimental: (§2) Experimental Procedure: NCI-H460, A549, and MDA-MB-231 cell lines were obtained from ATCC and cultured in RPMI-1640 medium supplemented with 2 mM L-glutamine dipeptide and 10% fetal bovine serum (FBS). For assays, cells were seeded in 96-well plates at 5,000 cells per well in RMPI-1640 medium supplemented with 2 mM L-glutamine dipeptide and 10% FBS. All cells were seeded in a total volume of 50 μL, and placed in a 37° C. humidified 5% CO2 cell culture incubator overnight. […] Cell viability was assessed using the CellTiter-Glo Luminescent Cell Viability Assay (Promega) according to the manufacturer's directions. Briefly, plates were removed from the incubator and placed on the bench at room temperature for 30 minutes. Plates were not stacked. Following the 30 minute incubation period at room temperature, 100 μL of CellTiter-Glo reagent were added to each well on the plate and mixed for two minutes, followed by a further ten minutes incubation at room temperature. Luminescence was then recorded using a PerkinElmer Microbeta scintillation and luminescence counter (TriLux). At the same time as drug exposure, a CellTiter-Glo assay was carried out on one plate of each cell line to obtain 0 hr counts for the assay. Following a 72 hour exposure to drugs, a CellTiter-Glo assay was performed on all remaining plates.

[5] = test system: MDA-MB-231 cell line; assay: In vitro cytotoxicity, CellTiter-Glo cell viability, MDA-MB-231; type: cell-based; settings: Homo sapiens, 72 hours of exposure
Experimental: as §2

[6] = test system: A549 cell line; assay: In vitro cytotoxicity, CellTiter-Glo cell viability, A549; type: cell-based; settings: Homo sapiens, 72 hours of exposure
Experimental: as §2

[7] = Maximum tolerated dose (MTD) study in athymic mice; settings: for MTD at 30 day: female, athymic nu/nu, mouse, in vivo, iv, athymic nu/nu mice
Experimental: Mice were observed daily for clinical signs and body weights were recorded on days 1-5, 7, 9, 11, 13, and then biweekly until the end of study. All procedures were conducted in compliance with IACUC requirements. Compound dosing was terminated for any group in which mean weight loss exceeded 20% or >10% of animals died. Moribund animals were euthanized and all animals were euthanized at end of study (day 30).

CO[C@H]1C(=O)[C@]2(C)[C@@H](OC)C[C@H]3OC[C@@]3(OC(C)=O)[C@H]2[C@H](OC(=O)c2ccccc2)[C@]2(O)C[C@H](OC(=O)[C@H](O)[C@@H](NC(=O)OC(C)(C)C)c3ccccc3)C(C)=C1C2(C)C [Cabazitaxel]
docetaxel formation after incubation with boiled liver microsomes [1]: not observed | stability during incubation with boiled liver microsomes ([1]; 1 μM, up to 30 minutes): fairly stable | microsomal CLint at 1 μM [2]: 410 µL/min/mg | extensively metabolized in the liver [3]: > 95%

CC(=O)O[C@@]12CO[C@@H]1C[C@H](O)[C@@]1(C)C(=O)[C@H](O)C3=C(C)[C@@H](OC(=O)[C@H](O)[C@@H](NC(=O)OC(C)(C)C)c4ccccc4)C[C@@](O)([C@@H](OC(=O)c4ccccc4)[C@H]21)C3(C)C [Docetaxel, reference compound]
IC50 [4]: 3.52 nM | IC50 [5]: 35.2 nM | IC50 [6]: 1.82 nM

[2H]C([2H])([2H])C(OC(=O)N[C@@H](c1ccccc1)[C@@H](O)C(=O)O[C@H]1C[C@@]2(O)[C@@H](OC(=O)c3ccccc3)C3C(C)(C(=O)[C@H](O)C(=C1C)C2(C)C)[C@@H](O)CC1OC[C@]13OC(C)=O)(C([2H])([2H])[2H])C([2H])([2H])[2H] (stereo partly drawn) [d9-Docetaxel]
IC50 [4]: 2.68 nM | IC50 [5]: 25.2 nM | Treatment-Related Deaths ([7]; Group 1, 10 mg/kg iv, qwk x 3, N 5): 0 | BW Nadir ([7]; Group 2, 20 mg/kg iv, qwk x 3): −5.6% | Treatment-Related Deaths ([7]; Group 2, 20 mg/kg iv, qwk x 3, N 5): 0 | BW Nadir ([7]; Group 3, 40 mg/kg iv, qwk x 3): −21.9% | Treatment-Related Deaths ([7]; Group 3, 40 mg/kg iv, qwk x 3, N 5): 0 | BW Nadir ([7]; Group 4, 7.5 mg/kg iv, qwk x 3): −10.6% | Treatment-Related Deaths ([7]; Group 4, 7.5 mg/kg iv, qwk x 3 in Table 2, N 5): 0 | BW Nadir ([7]; Group 5, 15 mg/kg iv, qwk x 3): −12.3% | Treatment-Related Deaths ([7]; Group 5, 15 mg/kg iv, qwk x 3 in Table 2, N 5): 0 | BW Nadir ([7]; Group 6, 30 mg/kg iv, qwk x 3): −29.6% | Mean Day of Death ([7]; Group 6, 30 mg/kg iv, qwk x 3): 11.5 | Treatment-Related Deaths ([7]; Group 6, 30 mg/kg iv, qwk x 3 in Table 2, N 5): 2 | MTD at 30 day ([7]; q3d×3, iv): ~15 mg/kg | MTD at 30 day ([7]; qwk×3, iv): ~30 mg/kg | IC50 [6]: 1.6 nM
